Measurements published in US20150283240A1, “STABILIZED COMPOSITIONS COMPRISING A […] ACTIVE AGENT AND AN OXIDIZING PRESERVATIVE” (Allergan, Inc., priority 2014, published 2015).

Tests used:
[1] = for Stabilization of chlorine dioxide (in words): excipients of Table 1 in brimonidine composition; for Stabilized Chlorine Dioxide Concentration, 0 Days / Stabilized Chlorine Dioxide Concentration, 7 Days / Stabilized Chlorine Dioxide Concentration, 14 Days: ingredient added at stated ppm to proprietary brimonidine composition
Description: Each of the excipients was added, in the amounts shown, to a proprietary composition comprising brimonidine as a therapeutically active agent.

[2] = Effect of citrate on bimatoprost and Purite stability in the composition of Table 4 at 50° C.; type: physicochemical; conditions: compositions D (citric acid 0.014%) vs E, 50° C., 3, 6 and 10 weeks, FIGS. 1 and 2
Description: Compositions D and E were prepared according to Table 4 by a procedure similar to that described in Example 2. […] The samples were stored at 50° C. and the concentrations of bimatoprost (FIG. 1) and Purite® (FIG. 2) were determined at 3, 6 and 10 weeks.

[3] = type: physicochemical
Description: A composition, prepared according to Table 5, was entirely manufactured in a single batch vessel and was prepared as follows. The ingredients are added into purified water with mixing in the following order: sodium phosphate dibasic heptahydrate, citric acid monohydrate, sodium chloride, bimatoprost, and Purite®. Each ingredient was allowed to dissolve completely before the next ingredient was added. The pH was then measured and adjusted to 7.3, and purified water was added to bring the composition to final volume.

For `O=C(O)CN(CCN(CC(=O)O)CC(=O)O)CC(=O)O` [EDTA], which “Stabilization of chlorine dioxide (in words)” value (“Stabilization” below) [1] is on record?
The value was “do not stabilize”.

What about the “Stabilized Chlorine Dioxide Concentration, 0 Days” value [1] of the same compound?
Its value is 44 ppm.

And the “Stabilized Chlorine Dioxide Concentration, 7 Days” value [1]?
The value was 2 ppm.

What about the “Stabilized Chlorine Dioxide Concentration, 14 Days” value [1] of the same compound?
The value was 0 ppm.

For `NCCN` [Ethylene diamine], which “Stabilization” value [1] is on record?
The value was “do not stabilize”.

For `O=C([O-])/C(O)=C(\O)C(=O)[O-].[Na+].[Na+]` [Sodium Dihydroxyfurmarate], which “Stabilized Chlorine Dioxide Concentration, 0 Days” value [1] is on record?
The value was 37 ppm.

And the “Stabilized Chlorine Dioxide Concentration, 7 Days” value [1]?
Its value is 13 ppm.

What about the “Stabilized Chlorine Dioxide Concentration, 14 Days” value [1] of the same compound?
The value was 0 ppm.

For `O=C[O-].[Na+]` [Sodium Formate], which “Stabilized Chlorine Dioxide Concentration, 0 Days” value [1] is on record?
Its value is 42 ppm.

What about the “Stabilized Chlorine Dioxide Concentration, 7 Days” value [1] of the same compound?
Its value is 40 ppm.

What about the “Stabilized Chlorine Dioxide Concentration, 14 Days” value [1] of the same compound?
The value was 36 ppm.

What does the source list for `CC(O)C(=O)[O-].[Na+]` (stereo not drawn) [Sodium Lactate]?
Stabilized Chlorine Dioxide Concentration, 0 Days [1]: 45 ppm; Stabilized Chlorine Dioxide Concentration, 7 Days [1]: 40 ppm; Stabilized Chlorine Dioxide Concentration, 14 Days [1]: 37 ppm

Which results are given for `O=C([O-])C(=O)[O-].[Na+].[Na+]` [Sodium Oxalate]?
Stabilization of chlorine dioxide (in words) [1]: ineffective; Stabilized Chlorine Dioxide Concentration, 0 Days [1]: 39 ppm; Stabilized Chlorine Dioxide Concentration, 7 Days [1]: 38 ppm; Stabilized Chlorine Dioxide Concentration, 14 Days [1]: 35 ppm

With `CC(=O)C(=O)[O-].[Na+]` [Sodium Pyruvate] as the compound, how does the “Stabilization” value [1] read?
The value was “ineffective”.

Which “Effect of citrate on bimatoprost and Purite stability (in words)” value [2] does the source give for `O=C(O)CC(O)(CC(=O)O)C(=O)O` [citrate, citric acid] here?
Its value is “stabilizes both bimatoprost and Purite®”.

What about the “Storage stability for bimatoprost and Purite (in words)” value [3] of the same compound?
The value was “excellent storage stability”.
